Results as given in patent US20180099931A1 (AbbVie S.à.r.l., priority 2016, published 2018).
Read-outs that look alike come from different tables or passages of the source.

Target: T1, F508delCFTR (Homo sapiens, UniProt P13569, DEL508-508)
T1 construct: expressed in transfected cells; host or cells: CFBE41o- human lung-derived epithelial cells (CFBE4lo-F508delCFTR-HRP), doxycycline-inducible
Assay: Cell Surface Expression-Horse Radish Peroxidase (CSE-HRP) Assay;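 on Maximum % activity (with co-corrector): co-corrector and positive control are both the same reference corrector at 2 µM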;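 on Maximum % activity (without co-corrector): percent of the 2 µM on-plate positive control corrector response above DMSO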
Type: cell-based
Conditions: for Emax: read-out: Maximum % activity (without co-corrector)

[1] = test compound without co-corrector, maximum at any tested concentration, normalized to on-plate positive control
[2] = test compound without co-corrector, read-out: EC50 (without co-corrector)
[3] = with co-corrector (2 μM of 3-[(2R,4R)-4-({[1-(2,2-difluoro-1,3-benzodioxol-5-yl)cyclopropyl]carbonyl}amino)-7-methoxy-3,4-dihydro-2H-chromen-2-yl]benzoic acid), maximum at any tested concentration, normalized to on-plate positive control
[4] = with co-corrector (2 μM of 3-[(2R,4R)-4-({[1-(2,2-difluoro-1,3-benzodioxol-5-yl)cyclopropyl]carbonyl}amino)-7-methoxy-3,4-dihydro-2H-chromen-2-yl]benzoic acid), read-out: EC50 (with co-corrector)
[5] = with co-corrector (2 μM), maximum at any tested concentration, normalized to on-plate positive control
[6] = CSE-HRP, test compound without co-corrector, read-out: EC50 (without co-corrector)
[7] = CSE-HRP, with co-corrector (2 μM of 3-[(2R,4R)-4-({[1-(2,2-difluoro-1,3-benzodioxol-5-yl)cyclopropyl]carbonyl}amino)-7-methoxy-3,4-dihydro-2H-chromen-2-yl]benzoic acid), read-out: EC50 (with co-corrector)
[8] = CSE-HRP, with co-corrector (2 μM), maximum at any tested concentration, normalized to on-plate positive control
[9] = CSE-HRP, without co-corrector, maximum at any tested concentration, normalized to on-plate positive control
[10] = without co-corrector, maximum at any tested concentration, normalized to on-plate positive control

T1 sequence (P13569 with tags, fused parts or gaps DEL508-508): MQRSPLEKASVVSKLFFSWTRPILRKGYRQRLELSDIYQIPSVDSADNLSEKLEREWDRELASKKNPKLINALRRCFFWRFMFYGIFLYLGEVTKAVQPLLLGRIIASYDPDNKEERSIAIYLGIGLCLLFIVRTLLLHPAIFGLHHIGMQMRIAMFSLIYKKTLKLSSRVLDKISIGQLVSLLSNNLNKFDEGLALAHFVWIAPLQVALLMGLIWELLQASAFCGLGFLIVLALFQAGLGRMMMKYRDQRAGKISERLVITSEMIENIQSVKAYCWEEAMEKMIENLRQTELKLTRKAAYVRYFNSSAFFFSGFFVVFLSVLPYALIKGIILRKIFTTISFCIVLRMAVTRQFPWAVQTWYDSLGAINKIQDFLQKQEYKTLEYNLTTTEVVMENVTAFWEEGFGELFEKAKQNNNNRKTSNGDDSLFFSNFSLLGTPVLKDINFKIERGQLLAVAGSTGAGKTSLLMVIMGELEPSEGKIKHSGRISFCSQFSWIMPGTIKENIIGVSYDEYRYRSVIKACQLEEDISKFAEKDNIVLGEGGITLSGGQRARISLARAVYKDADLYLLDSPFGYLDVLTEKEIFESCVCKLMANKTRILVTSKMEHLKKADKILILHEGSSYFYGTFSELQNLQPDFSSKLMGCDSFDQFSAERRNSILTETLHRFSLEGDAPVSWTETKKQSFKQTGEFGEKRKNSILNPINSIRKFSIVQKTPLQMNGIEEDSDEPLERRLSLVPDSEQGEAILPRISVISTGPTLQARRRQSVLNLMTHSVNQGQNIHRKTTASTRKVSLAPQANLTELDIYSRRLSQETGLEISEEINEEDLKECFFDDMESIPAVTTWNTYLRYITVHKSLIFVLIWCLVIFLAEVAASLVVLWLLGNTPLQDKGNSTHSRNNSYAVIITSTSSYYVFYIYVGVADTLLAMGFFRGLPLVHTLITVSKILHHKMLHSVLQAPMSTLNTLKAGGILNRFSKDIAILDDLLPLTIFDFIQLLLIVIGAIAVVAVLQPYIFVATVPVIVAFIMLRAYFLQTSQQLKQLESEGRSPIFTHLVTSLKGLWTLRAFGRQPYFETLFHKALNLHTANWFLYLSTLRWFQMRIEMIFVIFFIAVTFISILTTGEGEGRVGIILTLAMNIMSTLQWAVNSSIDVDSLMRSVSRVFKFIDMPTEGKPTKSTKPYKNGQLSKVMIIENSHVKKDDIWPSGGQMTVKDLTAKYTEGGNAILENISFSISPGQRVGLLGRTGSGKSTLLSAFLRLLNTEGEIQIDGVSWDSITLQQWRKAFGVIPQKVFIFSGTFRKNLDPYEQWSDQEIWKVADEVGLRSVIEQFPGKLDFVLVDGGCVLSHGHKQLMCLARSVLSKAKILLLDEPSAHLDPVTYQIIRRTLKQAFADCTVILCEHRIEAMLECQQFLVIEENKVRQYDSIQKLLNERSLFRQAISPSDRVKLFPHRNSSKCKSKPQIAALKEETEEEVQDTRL

SMILES	Emax [1] [%]	EC50 [2] [µM]	Maximum % activity (with co-corrector) [3]	EC50 [4] [µM]	Maximum % activity (with co-corrector) [5]	EC50 [6] [µM]	EC50 [7] [µM]	Maximum % activity (with co-corrector) [8]	Emax [9] [%]	Emax [10] [%]	Maximum % activity (without co-corrector) [10]
COc1cc(C(F)(F)F)ccc1CN[C@H]1[C@H](C(C)(C)C)[C@@H](C(=O)O)N(C(=O)C2CCCC(F)(F)C2)[C@H]1c1cccnc1OC (relative stereo) [Example I-257]	–	–	–	–	–	1 to 10	< 1	+++ (≥350)	100 to 200	–	–
COc1ccc(C(C)(C)C)cc1CN[C@H]1[C@H](C(C)(C)C)[C@@H](C(=O)O)N(C(=O)[C@H]2OCC[C@H]2C(C)C)[C@H]1c1ccccc1 (relative stereo) [Example 23, (2S,3S,4S,5S)-3-tert-butyl-4-{[(5-tert-butyl-2-methoxyphenyl)methyl]amino}-5-phenyl-1-[(2S*,3S*)-3-(propan-2-yl)oxolane-2-carbonyl]pyrrolidine-2-carboxylic acid]	–	1 to 10	–	< 1	+++ (≥350)	–	–	–	–	> 200	–
COc1ccc(C23CC(C2)C3)cc1CN[C@H]1[C@H](C(C)(C)C)[C@@H](C(=O)O)N(C(=O)[C@@H]2CCCC(F)(F)C2)[C@H]1c1ccccc1 [Example 67, (2S,3S,4S,5S)-4-({[5-(bicyclo[1.1.1]pentan-1-yl)-2-methoxyphenyl]methyl}amino)-3-tert-butyl-1-[(1R)-3,3-difluorocyclohexane-1-carbonyl]-5-phenylpyrrolidine-2-carboxylic acid]	–	< 1	–	< 1	+++ (≥350)	–	–	–	–	> 200	–
COc1ccc(C(C)(C)C)cc1CN[C@H]1[C@H](C(C)(C)C)[C@@H](C(=O)O)N(C(=O)C2CCCC(F)(F)C2)[C@H]1c1cccnc1N(C)C (single isomer, unassigned) [Example 44, (2S,3S,4S,5S)-3-tert-butyl-4-{[(5-tert-butyl-2-methoxyphenyl)methyl]amino}-1-[(1S*)-3,3-difluorocyclohexane-1-carbonyl]-5-[2-(dimethylamino)pyridin-3-yl]pyrrolidine-2-carboxylic acid]	–	1 to 10	–	< 1	+++ (≥350)	–	–	–	–	–	+++ (≥200)
COc1ccc(C(F)(F)F)cc1CN[C@H]1[C@H](C(C)(C)C)[C@@H](C(=O)O)N(C(=O)C2CCCCC2)[C@H]1c1ccccc1 [Example 9, (2S,3S,4S,5S)-3-tert-butyl-1-(cyclohexanecarbonyl)-4-({[2-methoxy-5-(trifluoromethyl)phenyl]methyl}amino)-5-phenylpyrrolidine-2-carboxylic acid]	–	< 1	–	< 1	+++ (≥350)	–	–	–	–	100 to 200	–
COc1cc(F)ccc1CN[C@H]1[C@H](C(C)(C)C)[C@@H](C(=O)O)N(C(=O)C2CCCCC2)[C@H]1c1ccccc1 [II-118]	–	–	–	–	–	1 to 10	1 to 10	+++ (≥350)	100 to 200	–	–
COc1ccc(C(F)(F)F)cc1CN[C@H]1[C@H](C(C)(C)C)[C@@H](C(=O)O)N(S(=O)(=O)c2ccccc2)[C@H]1c1ccccc1 [II-155]	–	–	–	–	–	1 to 10	1 to 10	++ (≥150 and <350)	< 100	–	–
COc1ncc(C2CCC2)cc1CN[C@H]1[C@H](C(C)(C)C)[C@@H](C(=O)O)N(C(=O)[C@@H]2CCCO2)[C@H]1c1ccccc1Br [Example 106, (2S,3S,4S,5S)-5-(2-bromophenyl)-3-tert-butyl-4-{[(5-cyclobutyl-2-methoxypyridin-3-yl)methyl]amino}-1-[(2S)-oxolane-2-carbonyl]pyrrolidine-2-carboxylic acid]	–	1 to 10	–	1 to 10	+++ (≥350)	–	–	–	–	100 to 200	–
COc1cc(C(F)(F)F)ccc1CN[C@H]1[C@H](C(C)(C)C)[C@@H](C(=O)O)N(C(=O)C2CCCO2)[C@H]1c1ccccc1 (mixture of isomers) [II-60]	–	–	–	–	–	1 to 10	1 to 10	+++ (≥350)	100 to 200	–	–

Continued, values first:

Emax [1] [%]	EC50 [2] [µM]	Maximum % activity (with co-corrector) [3]	EC50 [4] [µM]	Maximum % activity (with co-corrector) [5]	EC50 [6] [µM]	EC50 [7] [µM]	Maximum % activity (with co-corrector) [8]	Emax [9] [%]	Emax [10] [%]	Maximum % activity (without co-corrector) [10]	SMILES
> 200	1 to 10	+++ (≥350)	< 1	–	–	–	–	–	–	–	COc1ccc(C23CC(C2)C3)cc1CN[C@H]1[C@H](C(C)(C)C)[C@@H](C(=O)O)N(C(=O)C2CCCCC2)[C@H]1c1ccccc1F [II-517]
> 200	1 to 10	+++ (≥350)	1 to 10	–	–	–	–	–	–	–	COc1ccc(C(C)(C)C)cc1CN[C@H]1[C@H](C(C)(C)OC)[C@@H](C(=O)O)N(C(=O)OC(C)C)[C@H]1c1ccccc1 [II-419]
100 to 200	< 1	–	< 1	+++ (≥350)	–	–	–	–	–	–	COc1ncc(C2CCC2)cc1CN[C@H]1[C@H](C(C)(C)C)[C@@H](C(=O)O)N(C(=O)C2CCCCC2C(F)(F)F)[C@H]1c1ccccc1 (stereo partly shown) [III-214]
> 200	1 to 10	+++ (≥350)	1 to 10	–	–	–	–	–	–	–	COc1cc2c(cc1CN[C@H]1[C@H](C(C)(C)C)[C@@H](C(=O)O)N(C(=O)OC(C)C)[C@H]1c1cccnc1OC(C)C)CCC2 [II-574]
–	–	–	–	–	< 1	< 1	+++ (≥350)	> 200	–	–	COc1ccc(-c2ccc(F)cc2F)cc1CN[C@H]1[C@H](C(C)(C)C)[C@@H](C(=O)O)N(C(=O)C2CCCCC2)[C@H]1c1ccccc1 [II-283]
100 to 200	1 to 10	+++ (≥350)	1 to 10	–	–	–	–	–	–	–	COc1ncc(C2CCC2)cc1CN[C@H]1[C@H](C(C)(C)C)[C@@H](C(=O)O)N(C(=O)[C@@H]2CCCCO2)[C@H]1c1ccccc1F [II-531]
100 to 200	1 to 10	+++ (≥350)	1 to 10	–	–	–	–	–	–	–	COc1ncc(N2CCCC2)cc1CN[C@H]1[C@H](C(C)(C)C)[C@@H](C(=O)O)N(C(=O)OC(C)C)[C@H]1c1cccnc1N(C)C [II-577]
< 100	1 to 10	+++ (≥350)	1 to 10	–	–	–	–	–	–	–	COc1nc(C(C)(C)C)ccc1CN[C@H]1[C@H](C(C)(C)C)[C@@H](C(=O)O)N(C(=O)[C@H]2OC[C@H]3CCC[C@H]32)[C@H]1c1ccccc1 (relative stereo) [II-432]
100 to 200	1 to 10	–	1 to 10	+++ (≥350)	–	–	–	–	–	–	COc1ccc(C(C)(C)C)cc1CN[C@H]1[C@H](C23CC(C2)C3)[C@@H](C(=O)O)N(C(=O)OC(C)C)[C@H]1c1ccccc1F [III-222]
–	1 to 10	+++ (≥350)	–	–	–	–	–	–	–	–	COc1ccc(C(C)(C)C)cc1CN[C@H]1[C@H](C(C)(C)C)[C@@H](C(=O)O)N(C(=O)C2CCCCO2)[C@H]1c1cccnc1OC(F)F (single isomer, unassigned) [II-490]
100 to 200	1 to 10	+++ (≥350)	1 to 10	–	–	–	–	–	–	–	COc1ccc(C(C)(C)C)cc1CN[C@H]1[C@H](C(C)(C)C)[C@@H](C(=O)O)N(C(=O)C2CC(C)CC(C)C2)[C@H]1c1cccnc1N(C)C (stereo partly shown) [II-469]
< 100	> 10	++ (≥150 and <350)	1 to 10	–	–	–	–	–	–	–	COc1ccc(CN[C@@H]2[C@@H](C(C)(C)C)[C@H](C(=O)O)N(C(=O)C3CCCCC3)[C@@H]2c2ccccc2)cn1 (racemic) [III-25]
